We go through one compound from patent EP1897542A1, “Aqueous formulation comprising an antitumor agent” (Sanofi-Aventis, priority 2006, dated 2008).

Each structure is given as a SMILES string.

A short description of data set [1]: In vitro hemolytic potential with dog erythrocytes, phosphate buffer vehicle (Example 1). The following applies: dog, whole blood, n=5 (mean), percentage of that induced by saponin. The data set is classed as cell-based. How it is done:
(§1) The following study was performed to evaluate the hemolytic potential of solutions of (2R)-2-[4-(7-bromo-2-quinolyloxy)phenoxy]propanoic acid in a 0.1 M pH 8 phosphate bufferred vehicle at concentrations of 10 mg/mL and 20 mg/mL. Saline (0.9% NaCl) was used as a negative control, and saponin (3% aqueous solution), which is a known inducer of hemolysis, was used as the positive control.
(§2) Dog whole blood was mixed in a 1:1 ratio and a 9:1 ratio with solutions of the active ingredient in the vehicle and with the vehicles alone. Dog whole blood was also mixed in a 1:1 ratio and a 9:1 ratio with a 3% saponin solution as the positive control and saline (0.9% NaCl) as the negative control.
(§3) After mixing, tubes were incubated for 30 minutes at 37°C, then centrifuged (3000 t/min.) for 10 minutes. Hemoglobin concentrate was dosed in the supernatant by spectrophotometry UV/visible (Genesis technologies) for the assessment of the in vitro hemolytic potential. The percent of hemolysis was calculated based on the results of the saponin samples.

Data set [2] concerns dog erythrocytes. The data set is described as above. It counts as cell-based. The following applies: 10 and 20 mg/mL solutions in 0.1 M pH 8 phosphate buffer. On the procedure: as §1, §2, §3
Data set [3] deals with dog erythrocytes. Briefly: In vitro hemolytic potential in dog erythrocytes for a formulation containing a cyclodextrin (Example 4). It counts as cell-based. The following applies: 10 mg/mL Active Ingredient in 0.05M pH 7 phosphate buffer with 10% (w/v) hydroxypropyl beta cyclodextrin, n=6 (mean), percentage of that induced by saponin, 30 min. How it is done: Saline (0.9% NaCl) was used as the negative control, and saponin (3% aqueous solution) was used as the positive control.
as §2, §3

Data set [4] in a line: In vivo study in dogs with phosphate buffer formulation, 30-minute infusion (Example 6). More on the design: species or system beagle dog. The following applies: 0.1M phosphate buffer, single IV infusion over 30 minutes, 1 male and 1 female. How it is done:
Dosages were 25 and 50 mg/kg. Sampling for plasma level determination was taken for 1 day at the following intervals: end of infusion (0), 30 minutes, 1 hour, 3 hours, 6 hours, and 24 hours after the end of the infusion.

Data set [5] can be described thus: In vivo study in rats with phosphate buffer formulation, 1-hour infusion (Example 7). The following applies: 400 mg/kg dose, 0.1M phosphate buffer, single IV infusion over 1 hour, day of the infusion. How it is done: Dosages were 0 (control), 100, 200, and 400 mg/kg.
The nature of data set [6]: Preliminary animal toxicological studies, infusion of simple phosphate buffer formulation. The following applies: infused at 10 mg/mL or greater as a simple phosphate buffer formulation. It counts as in vivo. From the text:
(2R)-2-[4-(7-Bromo-2-quinolyloxy)phenoxy]propanoic acid may be administered as a liquid parenteral formulation. […] Since significant hemolysis can cause anemia, the hemolytic effect of (2R)-2-[4-(7-bromo-2-quinolyloxy)phenoxy]propanoic acid is an undesirable property for a pharmaceutical composition.

For `C[C@@H](Oc1ccc(Oc2ccc3ccc(Br)cc3n2)cc1)C(=O)O` [Active Ingredient, (2R)-2-[4-(7-bromo-2-quinolyloxy)phenoxy]propanoic acid], the hemolysis at 0.5 h in data set [1] (pH 8, 10 mg/mL Active Ingredient in 0.1 M pH 8 phosphate buffer, Blood/Solution ratio 1:1) stood at 24%; in data set [1] (pH 8, 10 mg/mL Active Ingredient in 0.1 M pH 8 phosphate buffer, Blood/Solution ratio 9:1) it was 4.5%; in data set [1] (pH 8, 20 mg/mL Active Ingredient in 0.1 M pH 8 phosphate buffer, Blood/Solution ratio 1:1), 28%; in data set [1] (pH 8, 20 mg/mL Active Ingredient in 0.1 M pH 8 phosphate buffer, Blood/Solution ratio 9:1), 6.6%. The “hemolysis of dog erythrocytes (result in words)” value in the data set with dog erythrocytes [2] is listed as “induced hemolysis”. Also, the “Percentage of Hemolysis” value turned out to be 1.8% in the data set on dog erythrocytes [3] (Blood/Solution ratio 1:1) and 0.5% with dog erythrocytes [3] (Blood/Solution ratio 9:1). Moreover, the “visual hemolysis on plasma samples” value is on record as “visual hemolysis was observed” in data set [4] (25 mg/kg, seen at time 0 and 30 minutes post infusion (all animals), 1 hour (male)); “visual hemolysis was observed” in data set [4] (50 mg/kg, seen at time 0, 30 minutes, 1 hour, 3 hours (both animals) and 6 hours (female)). Besides, the results for the “discolored urine (red/brown), animals affected” value in data set [5] (females) and in data set [5] (males) were 8 out of 10 and 6 out of 10, respectively. Further, the hemolysis entry in data set [6] is “cause a degree of hemolysis”.
